Legend:
[1] = system: platelet agglutination caused by PAF; assay: Inhibition of platelet agglutination caused by human PAF (platelet-rich plasma, optical method of Born); type: cell-based; settings: PAF at minimum concentration for maximum agglutination, read-out: Agglutination inhibiting activity IC50
Experimental: Effect on the Agglutination Caused by Human PAF
One part by volume of a 3.8% sodium citrate solution was added to 9 parts by volume of blood sampled from the forearm of a healthy adult to whom had been administered no medicine for at least two weeks. A platelet-rich plasma (PRP) was prepared by centrifugation. The inhibition of the platelet agglutination was determined by an optical method of Born et al. with a Hematolaser II® (a platelet agglutination meter of Niko Bioscience Co.). PAF was dissolved in Tyrode solution [Ca^++ (+)] to form a solution having the minimum concentration for causing the maximum agglutination. The test compound was dissolved in a physiological saline.
The agglutination inhibiting activity of the test compound was determined from the rate of inhibition of the maximum light transmittance (maximum agglutination rate) caused by PAF in control PRP. IC50 was determined from the inhibition curve.
The numeral in the column of the Test compound in Table 1 refers to the Example number of the compound.

Human PAF Receptor = target: T1, Human PAF Receptor (Homo sapiens, UniProt P25105); assay: Human PAF receptor binding assay (3H-PAF, platelets); settings: 3H-PAF 0.6 to 1 nM, 37° C., read-out: PAF receptor antagonism IC50
T1 construct: The platelets were sampled from healthy males by an ordinary method; endogenous in cells; host or cells: human platelets from healthy males (intact platelet suspension)
Experimental: Human PAF Receptor Binding Assay
The platelets were sampled from healthy males by an ordinary method and suspended in a binding buffer [10 mM phosphate-buffered saline (pH 7.0) containing 0.1 w/v % of BSA and 0.9 mM of CaCl2) to form a suspension having a concentration of 10^8 /460 μl. 20 μl of a solution of the test compound in the binding buffer was placed in a polypropylene tube and then 460 μl of the platelet suspension was added thereto. The mixture was subjected to a vortex treatment and then incubated at 37° C. for 6 min. 20 μl of a solution of ^3 H-PAF in the binding buffer (final ^3 H-PAF concentration: 0.6 to 1 nM) was added thereto and the mixture was incubated for 6 min. 3 ml of a washing solution (saline containing 0.1 w/v % of BSA) cooled with ice was added thereto to terminate the reaction. The reaction mixture was filtered by suction through a glass filter (Whatman GF/C). The glass filter was dried and the radioactivity thereof was determined with a liquid scintillation counter.
The inhibition % was calculated according to the following equation and IC50 so was determined by interpolation from the figure. [formula] wherein: total binding: dpm obtained when the concentration of the medicine or PAF is 0,
non-specific binding: dpm obtained when 10^-5 M of cold PAF was added.

[2] = system: blood pressure drop induced by PAF; assay: Action on the blood pressure drop induced by PAF; type: in vivo, F344 rats; settings: Rattus norvegicus, iv, 0.05 h, i.v., three minutes after 0.5 μg/kg PAF, ratio of blood pressure rise to drop, read-out: Recovery rate
Experimental: Action on the Blood Pressure Drop Induced by […]
Cannulae were inserted into the carotid and the jugular of each of F344 rats anesthetized with Pento (50 mg/kg, i. p.). The blood pressure was determined at the carotid and 0.5 ml/kg of PAF or the test compound was given through the jugular. Three minutes after the injection of 0.5 μg/kg of PAF, the test compound was given and the antagonism thereof was evaluated.
The recovery rate shown in Table 4 is the ratio of the blood pressure rise by the test compound to the drop thereof.

[3] = Determination of stability in aqueous solution; type: physicochemical; settings: pH 7.4, 37° C., 0.5M sodium phosphate; for half-life: read-out: Half-value period of disappearance due to hydrolysis (t1/2) (converted)
Experimental: Determination of Stability in Aqueous Solution
These compounds were unstable in a neutral or alkaline aqueous solution mainly due to the hydrolysis reaction of the N-acetyl or N-benzoyl group. The relationships between the pH and decomposition rate of several compounds were examined to find that they have the same pattern. The decomposition rate constant under conditions (pH 7.4, 37° C.) where they were relatively easily decomposed was determined and the stabilities of the compounds were compared with one another.
9 parts by volume of a buffer solution (0.5M sodium phosphate, pH 7.4) was added to 1 part by volume of an aqueous sample solution (1 mg/ml) and the mixture was kept at 37° C. The sampling was conducted at appropriate time intervals and the residual rate of an unreacted compound was determined by reversed phase high-performance liquid chromatography. Since the decomposition rate of most of the compounds can be approximately represented by the first-order decomposition rate equation, the decomposition rate constant was determined by the least squares method.

T1 sequence (P25105 whole entry): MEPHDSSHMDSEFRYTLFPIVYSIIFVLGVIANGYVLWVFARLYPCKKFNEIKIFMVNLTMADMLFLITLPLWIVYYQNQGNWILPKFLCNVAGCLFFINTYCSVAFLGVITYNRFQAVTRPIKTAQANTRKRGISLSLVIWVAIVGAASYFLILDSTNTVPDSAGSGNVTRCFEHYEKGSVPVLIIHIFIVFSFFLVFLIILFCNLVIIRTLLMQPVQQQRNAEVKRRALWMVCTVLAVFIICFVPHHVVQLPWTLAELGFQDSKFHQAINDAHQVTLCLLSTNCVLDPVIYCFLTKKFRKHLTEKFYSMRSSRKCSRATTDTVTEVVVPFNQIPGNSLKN

CCCCCCCCCCCCCCCCCC(=O)N1CCN(C(=O)OCC(COC(=O)N(Cc2cccc[n+]2CC)C(=O)c2ccccc2OC)OC)CC1 (stereo not drawn) [Example 11, 1-Ethyl-2-[N-(2-methoxy)benzoyl-N-(2-methoxy-3-(4-stearoylpiperazinocarbonyl)oxypropyloxy}carbonyl]aminomethylpyridinium iodide]
IC50 [1]: 86 nM | IC50 (Human PAF Receptor): 25 nM

CC[n+]1ccccc1CN(C(C)=O)C(=O)OCC(COc1cc(OC)c(OC)c(OC)c1)OC (stereo not drawn) [Example 17, 1-ethyl-2-(((N-acetyl-N-((2-methoxy-3-(3,4,5-trimethoxy)phenoxypropyloxy))carbonyl))) aminomethyl pyridium iodide]
IC50 [1]: 340 nM | inhibition in vivo at 1 mg/kg [2]: 97.5% | IC50 (Human PAF Receptor): 3500 nM

CCOC(=O)C1CCC(CNC(=O)OCC(COC(=O)N(Cc2cccc[n+]2CC)C(=O)c2ccccc2OC)OC)CC1 (stereo not drawn) [Example 7, 1-Ethyl-2-[N-{3-(4-ethoxycarbonyl)cyclohexylmethyl-carbamoyloxy-2-methoxy}propyloxycarbonyl-N-(2-methoxy)benzoyl]aminomethylpyridinium iodide]
IC50 [1]: 2600 nM

CC[n+]1ccccc1CN(C(=O)OCC(COC(=O)NCC1CCCO1)OC)C(=O)c1ccccc1OC (stereo not drawn) [Example 3, 1-Ethyl-2-[N-(2-methoxy)benzoyl-N-{2-methoxy-3-(2-tetrahydrofuranyl)methyl}carbamoyloxypropoxycarbonyl]aminomethylpyridinium chloride]
IC50 [1]: 310 nM | IC50 (Human PAF Receptor): 300 nM

CC[n+]1ccccc1CN(C(C)=O)C(=O)OCC(COCCc1cc(OC)c(OC)c(OC)c1)OC (stereo not drawn) [Example 16]
IC50 [1]: 380 nM | inhibition in vivo at 1 mg/kg [2]: 67.8% | IC50 (Human PAF Receptor): 3500 nM

CC[n+]1ccccc1CN(C(C)=O)C(=O)OCC(COC(=O)Nc1cc(OC)c(OC)c(OC)c1)OC (stereo not drawn) [Example 1, 1-Ethyl-2-[N-acetyl-N-{2-methoxy-3-(3,4,5-trimethoxy)phenylcarbamoyloxypropoxy}carbonyl]aminomethylpyridinium iodide]
IC50 [1]: 380 nM | inhibition in vivo at 1 mg/kg [2]: 21.7%

CC[n+]1ccccc1CN(C(=O)OCC(COC(=O)NCCCC(=O)N1CCOCC1)OC)C(=O)c1ccccc1OC (stereo not drawn) [Example 9, 1-Ethyl-2-[N-(2-methoxy)benzoyl-N-{3-(3-morpholinocarbonylpropan-1-yl)carbamoyloxy-2-methoxypropyloxy}carbonyl]aminomethylpyridinium chloride]
IC50 [1]: 260 nM | IC50 (Human PAF Receptor): 790 nM

CCCCCCCCCCCCCCCCCCOc1c(OC)cc(COCC(COC(=O)N(Cc2cccc[n+]2CC)C(=O)c2ccccc2OC)OC)cc1OC (stereo not drawn) [Example 18, 1-ethyl-2-(((N-((3,5-dimethoxy-4-octadecyloxy)benzyloxy-2-methoxypropyloxy))carbonyl-N-(2-methoxy)benzoyl))) aminomethyl pyridinium chloride]
half-life [3]: 37.7 h | IC50 [1]: 660 nM | inhibition in vivo at 0.01 mg/kg [2]: 74.1% | IC50 (Human PAF Receptor): 0.71 nM

CC[n+]1ccccc1CN(C(=O)OCC(COC(=O)NCCCCCCCCCCNC(=O)N(C)C)OC)C(=O)c1ccccc1OC (stereo not drawn) [Example 5, 1-Ethyl-2-[N-{3-(10-N,N-dimethylcarbamylamino)decylcarbamoyloxy-2-methoxypropyloxy}carbonyl-N-(2-methoxy)benzoyl]aminomethylpyridinium chloride]
IC50 [1]: 210 nM | IC50 (Human PAF Receptor): 1.9 nM

CC[n+]1ccccc1CN(C(=O)OCC(COCc1cc(OC)c(OC)c(OC)c1)OC)C(=O)N(C)C (stereo not drawn) [Example 22, 1-ethyl-2-(((N-(N,N-dimethyl)carbamyl-N-((2-methoxy-3-(3,4,5-trimethoxy)benzyloxypropyloxy))carbonyl))) aminomethylpyridinium iodide]
Half-value period of disappearance due to hydrolysis (t1/2) [3]: infinite

CCCCCCCCCCCCCCCCCCOCCCNC(=O)OCC(COC(=O)N(Cc1cccc[n+]1CC)C(=O)c1ccccc1OC)OC (stereo not drawn) [Example 4, 1-Ethyl-2-[N-(2-methoxy)benzoyl-N-{2-methoxy-3-(3-octadecyloxy)propylcarbamoyloxy}propoxycarbonyl]-aminomethylpyridinium chloride]
IC50 [1]: 140 nM | IC50 (Human PAF Receptor): 3.5 nM

CC[n+]1ccccc1CN(C(=O)OCC(COC(=O)NCCc1ccc(S(N)(=O)=O)cc1)OC)C(=O)c1ccccc1OC (stereo not drawn) [Example 8, 1-Ethyl-2-[N-(2-methoxy)benzoyl-N-{2-methoxy-3-(2-(4-sulfamoylphenyl)ethylcarbamoyloxy)propyloxy}carbonyl]aminomethylpyridinium iodide]
IC50 [1]: 110 nM | inhibition in vivo at 0.01 mg/kg [2]: 70.1% | inhibition in vivo at 0.1 mg/kg [2]: 96.7% | IC50 (Human PAF Receptor): 140 nM

CC[n+]1ccccc1CN(C(=O)OCC(COC(=O)NCc1ccc(S(=O)(=O)NCC2CCCCC2)cc1)OC)C(=O)c1ccccc1OC (stereo not drawn) [Example 12, 1-Ethyl-2-[N-{3(4-cyclohexylmethylsulfamoyl)benzylcarbamoyloxy-2-methoxypromyloxy}carbonyl-N-(2-methoxy)benzoyl]aminomethylpyridinium chloride]
IC50 [1]: 31 nM

CC[n+]1ccccc1CN(C(=O)OCC(COC(=O)Nc1ccc2c(c1)Cc1ccccc1-2)OC)C(=O)c1ccccc1OC (stereo not drawn) [Example 2, 1-Ethyl-2-[N-{3-(2-fluoreneamino)carbonyloxy-2-methoxypropyloxy}carbonyl-N-(2-methoxy)benzoyl]aminomethylpyridinium chloride]
IC50 [1]: 62 nM | inhibition in vivo at 0.01 mg/kg [2]: 79.2% | inhibition in vivo at 0.1 mg/kg [2]: 97.4% | IC50 (Human PAF Receptor): 8.9 nM

CCCCCOCCCCCOCCCCCNC(=O)OCC(COC(=O)N(Cc1cccc[n+]1CC)C(=O)c1ccccc1OC)OC (stereo not drawn) [Example 10, 1-Ethyl-2-[N-{3-(6,12-dioxaheptadecyl)carbamoyloxy-2-methoxypropyloxy}carbonyl-N-(2-methoxy)benzoyl]aminomethylpyridinium iodide]
IC50 [1]: 300 nM | inhibition in vivo at 0.01 mg/kg [2]: 42.5% | inhibition in vivo at 0.1 mg/kg [2]: 59.6% | IC50 (Human PAF Receptor): 16 nM

CC[n+]1ccccc1CN(C(=O)OCC(COCc1cc(OC)c(OCC2CCCCC2)c(OC)c1)OC)C(=O)c1ccccc1OC (stereo not drawn) [Example 20, 1-ethyl-2-(((N-((3-(4-cyclohexylmethoxy-3,5-dimethoxy)benzyloxy-2-methoxy))propyloxycarbonyl-N-(2-methoxy)benzoyl))) aminomethylpyridinium chloride]
IC50 [1]: 250 nM | inhibition in vivo at 1 mg/kg [2]: 91.1% | IC50 (Human PAF Receptor): 9.1 nM

CC[n+]1ccccc1CN1C(=O)CN(CC(COCc2cc(OC)c(OC)c(OC)c2)OC)C1=O (stereo not drawn) [Example 23]
half-life [3]: 361 h | IC50 [1]: 700 nM

CC[n+]1ccccc1CN(C(=O)OCC(COCc1ccc(-c2ccccc2)cc1)OC)C(=O)c1ccccc1OC (stereo not drawn) [Example 19, 1-ethyl-2-(((N-((3-(4-biphenylmethyloxy-2-methoxypropyloxy))carbonyl-N-(2-methoxy)benzoyl)))aminomethylpyridinium chloride]
IC50 [1]: 25 nM | inhibition in vivo at 1 mg/kg [2]: 74.9% | IC50 (Human PAF Receptor): 2.2 nM

— US5273985A, “Glycerin derivative and its pharmacological use” (Eisai Co., Ltd., priority 1988, dated 1993)
